From US20250066360A1, “PYRIDINE-CONTAINING POLYCYCLIC DERIVATIVE, AND PREPARATION METHOD THEREFOR AND USE THEREOF” (SHANGHAI HANSOH BIOMEDICAL CO., LTD., priority 2022, published 2025)
Read-outs that look alike come from different tables or passages of the source.

Tests used:
[1] = molecular target: T1, p38a (Active p38 alpha Protein) (Homo sapiens, UniProt Q16539); assay: Inhibition of p38 enzyme activity (TR-FRET, ULight-MBP); format: biochemical; settings: 3 nM p38a, 50 μM ATP
T1 construct: purchased R & D systems 5477-KS-010
T1 sequence (Q16539 whole entry): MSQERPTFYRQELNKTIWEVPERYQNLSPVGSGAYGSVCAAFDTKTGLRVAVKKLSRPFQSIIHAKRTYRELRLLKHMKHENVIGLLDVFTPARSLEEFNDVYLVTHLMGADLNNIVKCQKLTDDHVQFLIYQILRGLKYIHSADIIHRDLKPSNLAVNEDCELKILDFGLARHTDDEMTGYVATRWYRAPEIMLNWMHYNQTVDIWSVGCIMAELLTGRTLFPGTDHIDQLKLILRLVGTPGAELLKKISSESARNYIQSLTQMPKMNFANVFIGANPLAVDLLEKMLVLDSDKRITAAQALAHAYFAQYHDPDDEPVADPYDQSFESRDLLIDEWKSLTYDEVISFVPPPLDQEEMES
Experimental: Experimental method for determining the p38 enzyme activity: 3 nM p38a (Active p38 alpha Protein) and compounds diluted in a certain concentration gradient were incubated in 1× enzyme reaction buffer (50 mM HEPES pH 7.5, 1 mM EGTA, 10 mM MgCl2, 2 mM DTT, 0.01% Tween-20) for 1 hour. 50 nM ULight-MBP and 50 μM ATP (ATP 10 mM Solution) were added, and the mixture was reacted at room temperature for 1.5 hours. An equal volume of a detection and termination mixed solution (1×LANCE detection buffer containing 20 mM EDTA and 2 nM Europium-anti-P-MBP) was added, the mixture was mixed until uniform and centrifuged, a plate sealing film was attached, and a reaction was performed at room temperature for 1 hour. TR-FRET program of the EnVision instrument was used to read the plate, and the fluorescence value of each well was detected at 665 nm/615 nm.
(§1) Calculation was performed on the raw data (665 nm/615 nm reading ratio) according to the following formula to obtain the inhibition rate. Inhibition rate %=[(mean value in positive control well−value in sample well)/(mean value in positive control well−mean value in negative control well)]×100, wherein the positive control well was a reaction well without a compound […], and the negative control well was a reaction wells without an enzyme.
(§2) Log(inhibitor) vs. response−Variable slope (four parameters) in GraphPad Prism 6 was used for fitting equation analysis of the compound concentration and the corresponding inhibition rate, and the curve was fitted to obtain the IC50 value of the compound.
(§3) The fitting calculation equation was Y=Bottom+(Top−Bottom)/(1+10^((Log IC50−X)*HillSlope)).

[2] = Pharmacokinetic assay in SD rats (PO administration); format: in vivo; settings: male, Sprague-Dawley (SD), rat, plasma; for AUC(0-inf): read-out: Area under the curve AUC0-∞; for half-life: read-out: Half-life t1/2 (converted); for MRT: read-out: Mean residence time MRT; for Cmax: read-out: Plasma concentration Cmax; for Tmax: read-out: Time to peak tmax
Experimental: SD rats were used as test animals to study the pharmacokinetic behavior of the compounds of the present invention in the rat body (plasma) after oral administration at a dose of 5 mg/kg or 2 mg/kg and intravenous administration at a dose of 1 mg/kg.
3 SD rats/group, male, from Shanghai Jiesijie Experimental Animal Co., Ltd., animal production license number (SCXK (Shanghai) 2013-0006 N0.311620400001794).
PO, 10% solutol HS15 was dissolved by ultrasound and prepared into a clear solution or homogeneous suspension.
3 SD rats/group, male; After fasting overnight, the rats were administered p.o. at a dose of 5 mg/kg or 2 mg/kg with a dosage volume of 10 mL/kg and i.v. at a dose 1 mg/kg with a dosage volume of 5 mL/kg, respectively.
At 0.25, 0.5, 1, 2, 4, 6, 8, and 24 h after oral administration in the rats and at 0.083, 0.25, 0.5, 1, 2, 4, 6, 8, and 24 h after intravenous administration in the rats, 0.2 mL of blood was collected from the jugular vein, placed in an EDTA-K2 test tube, centrifuged at 4° C. at 6000 rpm for 6 min to separate plasma, which was stored at −80° C.
• 1) 100 μL of acetonitrile was added to 20 μL of plasma sample for pelleting, and it was mixed and centrifuged at 3500×g for 5-20 min. • 2) The treated supernatant solution was taken and subjected to LC/MS/MS to analyze the concentrations of the test compounds. LC/MS/MS analysis instrument: AB Sciex API 4000 Qtrap.
• Liquid phase conditions: Shimadzu LC-20AD pump • Chromatographic column: Waters Xbridge C18 5 μm, 4.6×50 mm, mobile phase: liquid A was 0.1% aqueous formic acid solution, and liquid B was methanol • Flow rate: 1.0 mL/min • Elution time: 0-4.0 min, the eluent was as follows:
The main pharmacokinetic parameters were calculated using WinNonlin 6.1.

p38α/MK2 = molecular target: T2, p38α/MK2 (Homo sapiens, UniProt P49137+Q16539); assay: Inhibition of p38α/MK2 enzyme activity (TR-FRET, ULight-CREBtide); format: biochemical; settings: for IC50: 0.06 nM p38a, 1.2 nM MK2, 25 μM ATP, read-out: p38/MK2 IC50; for Selectivity ratio (p38 IC50 / p38/MK2 IC50): selectivity ratio p38 IC50 over p38/MK2 IC50
T2 construct: purchased R & D systems (p38 alpha); Thermo (MK2) 5477-KS-010; PV3316
T2 sequence (Q16539 whole entry): as above
T2 sequence (P49137 whole entry): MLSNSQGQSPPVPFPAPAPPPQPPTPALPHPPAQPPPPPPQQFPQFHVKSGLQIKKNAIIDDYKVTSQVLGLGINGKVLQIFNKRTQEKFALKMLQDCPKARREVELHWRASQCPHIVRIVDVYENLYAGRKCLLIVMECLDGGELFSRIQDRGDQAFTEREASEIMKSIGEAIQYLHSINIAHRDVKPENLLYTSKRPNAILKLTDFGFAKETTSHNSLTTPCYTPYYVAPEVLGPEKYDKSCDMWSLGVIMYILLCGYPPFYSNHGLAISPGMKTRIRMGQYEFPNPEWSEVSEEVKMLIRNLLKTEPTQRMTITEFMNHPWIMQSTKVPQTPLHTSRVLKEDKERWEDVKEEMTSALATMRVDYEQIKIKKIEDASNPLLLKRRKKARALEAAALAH
Experimental: 50 nM ULight-CREBtide and 25 μM ATP (ATP Solution) were added, and the mixture was reacted at room temperature for 1.5 hours. An equal volume of a detection and termination mixed solution (1×LANCE detection buffer containing 20 mM EDTA and 2 nM Europium-anti-phospho-CREB) was added, the mixture was mixed until uniform and centrifuged, a plate sealing film was attached, and a reaction was performed at room temperature for 1 hour. TR-FRET program of the EnVision instrument was used to read the plate, and the fluorescence value of each well was detected at 665 nm/615 nm.
as §1, §2, §3

p-Hsp27 in U937 cells = assay: Inhibition of p-Hsp27 in LPS-stimulated U937 cells (ELISA); format: cell-based; settings: Homo sapiens, U-937; PMA-differentiated U937, 10 ng/ml LPS 0.5 hours; read-out: U937 cell activity test p-HSP27 IC50
Experimental: U937 cells were treated with 20 ng/ml PMA for differentiation overnight, and after replacement with a fresh culture medium, the U937 cells were rested overnight. After differentiation, the U937 cell were digested and counted, and 25,000 cells per well were seeded in a 96-well plate until the cells adhered to the wall. A compound concentration gradient was prepared, the cells were pretreated with the compound for 1 hour (the highest final concentration of the compound was 1 μM, diluted in 3-fold concentration gradient), and 10 ng/ml LPS (Lipopolysaccharides from Escherichia coli O111:B4) was added for stimulation for 0.5 hours. After the cells were washed with PBS, the cells were lysed with a lysis solution. p-Hsp27 in the cell lysate was detected by using Phospho-HSP27 (S78/S82) DuoSet IC ELISA kit. For specific steps, reference could be made to the standard steps provided by the kit manufacturer.
Calculation of p-Hsp27 inhibition rate: Inhibition rate %=[(mean value of p-Hsp27 in positive control well−mean value of p-Hsp27 in sample well)/(mean value of p-Hsp27 in positive control well−mean value of p-Hsp27 in negative control well)]×100%, wherein the positive control well was a well without a compound (DMSO-treated well), and the negative control well was a well without LPS stimulation.
(§4) Dose response curve fitting: Log(inhibitor) vs. response−Variable slope (four parameters) in GraphPad Prism 6 was used for fitting equation analysis of the compound concentration and the corresponding inhibition rate, and the curve was fitted to obtain the IC50 value of the compound.
as §3

TNF-α in U937 cells = assay: Inhibition of the expression level of TNF-α in LPS-stimulated U937 cells (ELISA); format: cell-based; settings: Homo sapiens, U-937; PMA-differentiated U937, 10 ng/ml LPS 4 hours; read-out: U937 cell activity test TNF-α IC50
Experimental: U937 cells were treated with 20 ng/ml PMA for differentiation overnight, and after replacement with a fresh culture medium, the U937 cells were rested overnight. After differentiation, the U937 cells were digested and counted, and 50,000 cells per well were seeded in a 96-well plate until the cells adhered to the wall. A compound concentration gradient was prepared, the cells were pretreated with the compound for 1 hour (the highest final concentration of the compound was 1 μM, diluted in 3-fold concentration gradient), and 10 ng/ml LPS (Lipopolysaccharides from Escherichia coli O111:B4) was added for stimulation for 4 hours. Thereafter, the culture supernatant was collected by centrifugation and used for subsequent ELISA to detect the concentration of TNF-α in the supernatant. The concentration of TNF-α was detected according to the standard steps provided by the ELISA kit manufacturer.
A standard curve was plotted by a linear regression method from a TNF-α standard, and the concentration of TNF-α in a sample was derived by conversion according to the standard curve.
Calculation of inhibition rate: Inhibition rate %=[(mean value of TNF-α concentration in positive control well−mean value of TNF-α concentration in sample well)/(mean value of TNF-α concentration in positive control well−mean value of TNF-α concentration in negative control well)]×100%, wherein the positive control well was a well without a compound (DMSO-treated well), and the negative control well was a culture medium well.
as §4, with “compound. The fitting calculation equation was Y=Bottom+(Top−Bottom)/(1+10^((Log IC50−X)*HillSlope)).” for “compound.”

p38-MK2 = p38-MK2 (Homo sapiens, UniProt P49137+Q16539); settings: patients with rheumatoid arthritis, preliminary clinical trial results; cited from earlier work
p38-MK2, sequence (Q16539 whole entry): as the sequence (Q16539 whole entry) above
p38-MK2, sequence (P49137 whole entry): as the sequence (P49137 whole entry) above

IC50 [1] [nM]	AUC(0-inf) ([2]; 5 mg/kg) [ng·h/mL]	half-life ([2]; 5 mg/kg) [h]	MRT ([2]; 5 mg/kg) [h]	Cmax ([2]; 5 mg/kg) [ng/mL]	Tmax ([2]; 5 mg/kg) [h]	IC50 (p38α/MK2) [nM]	Selectivity ratio (p38 IC50 / p38/MK2 IC50) (p38α/MK2)	IC50 (p-Hsp27 in U937 cells) [nM]	IC50 (TNF-α in U937 cells) [nM]	AUC(0-inf) ([2]; 2 mg/kg) [ng·h/mL]	half-life ([2]; 2 mg/kg) [h]	MRT ([2]; 2 mg/kg) [h]	Cmax ([2]; 2 mg/kg) [ng/mL]	Tmax ([2]; 2 mg/kg) [h]	SMILES	efficacy (p38-MK2)	safety and tolerability (p38-MK2)
15.3	14200	2.7	2.9	4180	1	0.1	153	0.15	0.16	–	–	–	–	–	[2H]C([2H])(Oc1cc2n(c(=O)c1Cl)-c1c(cnc(-n3cc(F)c(C(C)(C)NC(C)=O)n3)c1F)CCCC2)c1ncc(F)cc1F [Example 6-1, (R)—N-(2-(1-(11-chloro-10-((3,5-difluoropyridin-2-yl)methoxy-d2)-1-fluoro-12-carbonyl-6,7,8,12-tetrahydro-5H-dipyrido[1,2-a:3′,4′-g]azocin-2-yl)-4-fluoro-1H-pyrazol-3-yl)propan-2-yl)acetamide]	–	–
22.9	22000	2.5	3.8	3760	0.5	0.14	164	0.1	0.12	–	–	–	–	–	[2H]C([2H])(Oc1cc2n(c(=O)c1Cl)-c1c(cnc(-c3ccnc(C(C)(C)O)n3)c1F)CCCC2)c1ncc(F)cc1F [Example 9-1, (R)-11-chloro-10-((3,5-difluoropyridin-2-yl)methoxy-d2)-1-fluoro-2-(2-(2-hydroxypropan-2-yl)pyrimidin-4-yl)-5,6,7,8-tetrahydro-12H-dipyrido[1,2-a:3′4′-g]azocin-12-one]	–	–
–	–	–	–	–	–	–	–	–	–	–	–	–	–	–	Cc1cnc(-c2ccnc(C(C)(C)O)n2)cc1-n1c(C)cc(OCc2ncc(F)cc2F)c(Cl)c1=O [ATI-450]	outstanding and lasting efficacy	safe and tolerable
49.1	–	–	–	–	–	0.34	144	0.35	0.34	7350	1.4	2.5	2160	1	[2H]C([2H])(Oc1cc2n(c(=O)c1Cl)-c1c(cnc(-c3ccnc(C(C)(C)NC(C)=O)n3)c1F)CCCC2)c1ncc(F)cc1F [Example 7-1, (R)—N-(2-(4-(11-chloro-10-((3,5-difluoropyridin-2-yl)methoxy-d2)-1-fluoro-12-carbonyl-6,7,8,12-tetrahydro-5H-dipyrido[1,2-a:3,4′-g]azocin-2-yl)pyrimidin-2-yl)propan-2-yl)acetamide]	–	–
77.4	–	–	–	–	–	0.71	109	0.17	1.2	–	–	–	–	–	[2H]C([2H])(Oc1cc2n(c(=O)c1Cl)-c1cc(-c3ccnc(C(C)(C)O)n3)ncc1CCCC2)c1ncc(F)cc1F [Example 1-1, (S)-11-Chloro-10-((3,5-difluoropyridin-2-yl)methoxy-d2)-2-(2-(2-hydroxypropan-2-yl)pyrimidin-4-yl)-5,6,7,8-tetrahydro-12H-dipyrido[1,2-a:3′,4′-g]azol-12-one]	–	–
53.6	–	–	–	–	–	0.2	268	0.32	0.18	–	–	–	–	–	[2H]C([2H])(Oc1cc2n(c(=O)c1Cl)-c1cc(-n3cccc(C(C)(C)O)c3=O)ncc1CCCC2)c1ncc(F)cc1F [Example 15-1, (S)-11-chloro-10-((3,5-difluoropyridin-2-yl)methoxy-d2)-2-(3-(2-hydroxypropan-2-yl)-2-carbonylpyridin-1(2H)-yl)-5,6,7,8-tetrahydro-12H-dipyrido[1,2-a:3′,4′-g]azocin-12-one]	–	–
